The text below walks through data of PubChem BioAssay AID791 (The Scripps Research Institute Molecular Screening Center, 2007).

The source made the active and inactive calls.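 Rule for the calls: active = IC50 at or below 10 µM; inactive = IC50 above 10 µM.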

The target of the experiment is Rho-associated protein kinase 2 (Homo sapiens) (UniProt O75116). Briefly: ROCK2 inhibitor IC50 determination, dose response, biochemical, Kinase-Glo luminescence, S6 peptide, 384-well (AID 791). To be noted: recombinant ROCK2, S6 peptide. (Kinase-Glo reads ATP consumption through a luciferase reaction.)
Sequence of Rho-associated protein kinase 2 (Homo sapiens) (O75116 whole entry, looked up): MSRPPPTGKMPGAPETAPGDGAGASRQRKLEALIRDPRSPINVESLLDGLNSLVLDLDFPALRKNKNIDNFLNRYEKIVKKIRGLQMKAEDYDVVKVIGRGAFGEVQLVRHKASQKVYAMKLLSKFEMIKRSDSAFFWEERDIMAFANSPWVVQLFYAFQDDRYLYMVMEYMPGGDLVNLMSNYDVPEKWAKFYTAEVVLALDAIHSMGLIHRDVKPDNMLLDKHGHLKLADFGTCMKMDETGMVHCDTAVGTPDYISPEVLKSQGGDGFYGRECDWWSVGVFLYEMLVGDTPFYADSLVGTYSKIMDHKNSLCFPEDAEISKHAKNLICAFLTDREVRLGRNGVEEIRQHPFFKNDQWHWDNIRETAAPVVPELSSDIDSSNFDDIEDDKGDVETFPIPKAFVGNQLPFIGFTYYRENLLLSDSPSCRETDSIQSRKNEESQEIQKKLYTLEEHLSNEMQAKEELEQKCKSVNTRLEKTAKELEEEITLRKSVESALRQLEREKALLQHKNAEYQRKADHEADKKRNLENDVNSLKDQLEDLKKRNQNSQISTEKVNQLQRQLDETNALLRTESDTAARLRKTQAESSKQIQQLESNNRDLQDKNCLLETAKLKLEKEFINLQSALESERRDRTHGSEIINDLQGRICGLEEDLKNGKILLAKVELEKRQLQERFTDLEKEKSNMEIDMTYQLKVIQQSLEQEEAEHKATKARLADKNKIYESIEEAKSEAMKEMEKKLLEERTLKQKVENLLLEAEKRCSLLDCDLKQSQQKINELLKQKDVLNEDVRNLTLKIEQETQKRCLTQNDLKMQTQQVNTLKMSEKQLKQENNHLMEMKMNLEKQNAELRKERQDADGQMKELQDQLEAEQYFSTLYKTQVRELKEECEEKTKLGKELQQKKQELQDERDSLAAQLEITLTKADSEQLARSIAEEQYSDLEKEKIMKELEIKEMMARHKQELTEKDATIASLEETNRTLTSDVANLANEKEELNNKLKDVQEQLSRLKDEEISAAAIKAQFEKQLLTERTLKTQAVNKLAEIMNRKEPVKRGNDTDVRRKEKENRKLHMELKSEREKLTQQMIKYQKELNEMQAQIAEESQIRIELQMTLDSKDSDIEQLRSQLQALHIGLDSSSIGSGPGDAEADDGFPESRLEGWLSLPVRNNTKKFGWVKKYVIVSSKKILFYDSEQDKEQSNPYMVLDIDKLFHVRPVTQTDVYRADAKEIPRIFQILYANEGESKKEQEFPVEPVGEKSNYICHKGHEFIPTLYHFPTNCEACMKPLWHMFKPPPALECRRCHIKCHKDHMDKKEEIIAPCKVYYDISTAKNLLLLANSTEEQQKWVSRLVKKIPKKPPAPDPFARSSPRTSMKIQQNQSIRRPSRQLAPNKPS
As a reminder, the IC50 is the midpoint of a concentration-inhibition curve. Take `C[C@H](O)C(=O)N1CCC(Nc2ccc3[nH]ncc3c2)CC1`: the IC50 is > 10 µM (inactive).
Take `C[C@@H](N)C(=O)N1CCN(c2ccc3[nH]ncc3c2)CC1`: the IC50 was > 10.6 µM (inactive).
With `O=C([C@H](O)c1cccc(Cl)c1)N1CCN(c2ccc3[nH]ncc3c2)CC1` the figure was 1.05 µM; with `N[C@H](C(=O)N1CCC(Nc2ccc3[nH]ncc3c2)CC1)c1ccccc1`, 0.835 µM.
With `N[C@@H](C(=O)N1CCN(c2ccc3[nH]ncc3c2)CC1)c1ccccc1` the figure was 1.4 µM.
As for `O=C([C@@H](O)c1ccccc1Cl)N1CCC(Nc2ccc3[nH]ncc3c2)CC1`, the figure is 1.7 µM; as for `NC(C(=O)N1CCN(c2ccc3[nH]ncc3c2)CC1)c1ccc(Cl)cc1` (stereo not drawn), 0.188 µM.
Regarding `NC(C(=O)N1CCN(c2ccc3[nH]ncc3c2)CC1)c1ccc(Br)cc1` (stereo not drawn), the IC50 is 0.00897 µM.
With `CC(C)[C@@H](O)C(=O)N1CCN(c2ccc3[nH]ncc3c2)CC1` the figure was 3.91 µM; with `O=C([C@H](O)c1cccc(Cl)c1)N1CCC(Nc2ccc3[nH]ncc3c2)CC1`, 0.35 µM.
For the compound `N[C@H](Cc1ccccc1)C(=O)N1CCN(c2ccc3[nH]ncc3c2)CC1`, the IC50 was 0.379 µM.
With `O=C([C@@H]1Cc2ccccc2CN1)N1CCN(c2ccc3[nH]ncc3c2)CC1` the figure was 5.32 µM; with `C[C@H](N)C(=O)N1CCC(Nc2ccc3[nH]ncc3c2)CC1`, 5.74 µM; with `NC(C(=O)N1CCC(Nc2ccc3[nH]ncc3c2)CC1)c1ccc(Br)cc1` (stereo not drawn), 0.00126 µM.
With `O=C([C@H](O)c1ccccc1Cl)N1CCN(c2ccc3[nH]ncc3c2)CC1` the figure was 1.2 µM; with `NC(C(=O)N1CCN(c2ccc3[nH]ncc3c2)CC1)c1cccc(Cl)c1` (stereo not drawn), 0.756 µM; with `N[C@@H](Cc1ccccc1)C(=O)N1CCC(Nc2ccc3[nH]ncc3c2)CC1`, 0.468 µM.
With `O=C(C(O)c1ccc(Br)cc1)N1CCN(c2ccc3[nH]ncc3c2)CC1` (stereo not drawn) the figure was 0.00786 µM; with `O=C([C@H](O)c1ccccc1)N1CCN(c2ccc3[nH]ncc3c2)CC1`, 0.855 µM; with `O=C(C(O)c1ccc(Cl)cc1)N1CCN(c2ccc3[nH]ncc3c2)CC1` (stereo not drawn), 0.186 µM.
`O=C([C@H](O)c1ccccc1)N1CCC(Nc2ccc3[nH]ncc3c2)CC1`: the IC50 is 0.774 µM.
With `NC(C(=O)N1CCC(Nc2ccc3[nH]ncc3c2)CC1)c1cccc(Cl)c1` (stereo not drawn) the figure was 0.148 µM; with `O=C(C(O)c1ccc(Br)cc1)N1CCC(Nc2ccc3[nH]ncc3c2)CC1` (stereo not drawn), 0.00887 µM.
